Test results taken from patent publication US20160244486A1, “AB Modulating Peptides” (ALZHYME PTY LTD, priority 2013, published 2016).
Square brackets hold non-standard residues; d marks the D form. Ends that are not written are not given here. Peptide text beside a SMILES is read from it. ξ: configuration not given here. ξT = CC(O)C(N)C(=O)O

Columns and labels:
[1] = target: oligomeric Aβ42 (human synthetic Aβ42, pre-formed oligomers) (human) (UniProt P05067); assay: SPR (Biacore 3000), 15M S.A. immobilised on CM5, oAβ42 injected; 1:1 binding model with drifting baseline; overall estimate across the oligomer mixture
[2] = In vitro peptide stability in 10% rat brain homogenate, RP-HPLC quantification; type: in vitro ADME; conditions: 37° C.
Method: Peptides were prepared as a 1 mM solution in phosphate-buffered saline. 20 μl of the peptide solution was diluted in 10% rat brain homogenate (in 1× phosphate-buffered saline and 0.5% Triton X-100).
The solution was incubated at 37° C. for different times, and the reaction was stopped by adding the Complete mixture of protease inhibitors (Roche Molecular Biochemicals, Mannheim, Germany). For ANA5 and RI-ANA5, the bulk of the brain proteins (but not the peptides) were precipitated in cold methanol (1:4 (v/v) mixture/MeOH) for 1 hr at −20° C. The precipitated proteins were pelleted by centrifugation at 10,000 g for 10 min at 4° C. The supernatant containing the peptide was concentrated five times under vacuum and separated by RP-HPLC. Due to recovery issues with the longer ANA1 and RI-ANA1 peptides, samples were instead lyophilized and then reconstituted in a TFA solution, prior to separation by RP-HPLC.
The area of the peak (UV absorbance at 205 nm) corresponding to the intact peptide was measured and compared with an equivalent sample incubated in phosphate-buffered saline.
(iii) In vitro assay of peptide stability—Peptides were prepared as a 1 mM solution in PBS. 20 μl of the peptide solution was diluted in 10% rat brain homogenate (in PBS+0.5% Triton X-100). The solution was incubated at 37° C. for different times, and the reaction was stopped by adding the Complete mixture of protease inhibitors (Roche Molecular Biochemicals, Mannheim, Germany). For ANA5 and 9M S.A., the bulk of the brain proteins (but not the peptides) were precipitated in cold methanol (1:4 (v/v) mixture/methanol) for 1 h at −20° C. The precipitated proteins were pelleted by centrifugation (10.000 g, 10 min, 4° C.). The supernatant containing the peptide was concentrated five times under vacuum and separated by reversed-phase HPLC (RP-HPLC). Due to recovery issues with the longer ANA1 and RI-ANA1 peptides, samples were instead lyophilized, extracted in TFA, centrifuged to remove insoluble material and separated by RP-HPLC. The area of the peak (UV absorbance at 205 nm) corresponding to the intact peptide was measured and compared with an equivalent sample incubated in PBS.
Peptides were prepared as 1 mM solutions in PBS and diluted in 10% rat brain homogenate. Solutions were incubated at 37° C. for different times, and the reactions were stopped by addition of protease inhibitors. Samples were processed as described herein in the General Materials/Methods, separated by RP-HPLC and the level of intact peptide was determined at each time point.

amyloid plaques = assay: Ex vivo staining of amyloid plaques in brain tissue sections; conditions: brain tissue from 8 month old 5× FAD AD model mice
Method: (x) Immunohistochemistry—Brains were obtained from 8 month old 5× FAD AD model mice Oakley, F-F et al (2006) or age-matched non-transgenic controls and post-fixed and embedded in the freezing medium as described in Drummond, E. S. et al (2013). Serial sagittal cryosections were cut at a thickness of 10 μm. Positive control staining for amyloid was performed using Thioflavin S (ThioS) as described in Youmans, K. L, et al (2012). After the removal of the freezing medium by serial changes of TBS pH 7.4, the slide was incubated for 1 h at room temperature in blocking buffer (10% goat serum in TBS). The slides were then stained with 1 μM TMR-labelled 15M S.A. peptide in 2% goat-serum-PBS for 2 hours at room temperature. Excess unbound peptide was removed prior to mounting by extensive washing with TBS. The coverslip was mounted using Prolong Gold mounting media (Life Technologies).
We investigated whether TMR-labelled 15M S.A. could be used to stain amyloid plaques ex vivo using brain tissue sections from AD model mice, in comparison with Thioflavin S (Thio S), which binds mature amyloid deposits and readily detects these plaques.

Chain of UniProt P05067 (P05067 672-713 limits assumed): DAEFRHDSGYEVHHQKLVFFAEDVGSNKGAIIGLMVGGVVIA

| Molecule | intact peptide amount ([2]; time 0 min) [µg] | intact peptide amount ([2]; time 15 min) [µg] | intact peptide amount ([2]; time 30 min) [µg] | intact peptide amount ([2]; time 300 min) [µg] | other results |
| --- | --- | --- | --- | --- | --- |
| RI-ANA1 (Arg-Lys-Leu-Met-Gln-Pro-Thr-Arg-Asn-Arg-Arg-Asn-Pro-Asn-Thr, all D-amino acids) (peptide) | – | – | – | – | Kd [1]: 11 µM |
| CSCC[C@@H](NC(=O)[C@@H](CC(C)C)NC(=O)[C@@H](CCCCN)NC(=O)[C@H](N)CCCNC(=N)N)C(=O)N[C@H](CCC(N)=O)C(=O)N1CCC[C@@H]1C(=O)NC(C(=O)N[C@H](CCCNC(=N)N)C(=O)N[C@H](CC(N)=O)C(=O)N[C@H](CCCNC(=N)N)C(=O)N[C@H](CCCNC(=N)N)C(=O)N[C@H](CC(N)=O)C(=O)N1CCC[C@@H]1C(=O)N[C@H](CC(N)=O)C(=O)NC(C(=O)O)C(C)O)C(C)O (stereo partly drawn) [RI-ANA1, Arg-Lys-Leu-Met-Gln-Pro-Thr-Arg-Asn-Arg-Arg-Asn-Pro-Asn-Thr] (H-[dR][dK][dL][dM][dQ][dP][ξT][dR][dN][dR][dR][dN][dP][dN][ξT]-OH; N-terminus and C-terminus assumed) | 29.8 | 27.8 | 29.4 | 33.5 | intact peptide amount ([2]; time 0 min, listed as 15M S.A.): 29.80 µg; intact peptide amount ([2]; time 15 min, listed as 15M S.A.): 27.80 µg; intact peptide amount ([2]; time 30 min, listed as 15M S.A.): 29.40 µg; intact peptide amount ([2]; time 300 min, listed as 15M S.A.): 33.50 µg |
| Thioflavin S [Thio S] | – | – | – | – | staining of amyloid deposits (amyloid plaques): extensive plaques |
| CSCC[C@@H](NC(=O)[C@@H](CC(C)C)NC(=O)[C@@H](CCCCN)NC(=O)[C@H](N)CCCNC(=N)N)C(=O)N[C@H](CCC(N)=O)C(=O)N1CCC[C@@H]1C(=O)N[C@@H](C(=O)N[C@H](CCCNC(=N)N)C(=O)N[C@H](CC(N)=O)C(=O)O)[C@H](C)O [RI-ANA5, Arg-Lys-Leu-Met-Gln-Pro-Thr-Arg-Asn] | 14 | 12.35 | 12.35 | 12.5 | intact peptide amount ([2]; time 0 min, listed as 9M S.A.): 14.11 µg; intact peptide amount ([2]; time 300 min, listed as 9M S.A.): 12.51 µg |

More lines, main results first:

| intact peptide amount ([2]; time 0 min) [µg] | intact peptide amount ([2]; time 15 min) [µg] | intact peptide amount ([2]; time 30 min) [µg] | intact peptide amount ([2]; time 300 min) [µg] | Molecule | other results |
| --- | --- | --- | --- | --- | --- |
| 12 | 0.47 | 0 | 0 | NRTPQMLKR [ANA5, Asn-Arg-Thr-Pro-Gln-Met-Leu-Lys-Arg] | intact peptide amount ([2]; time 0 min, listed as 9mer): 12.00 µg; intact peptide amount ([2]; time 30 min, listed as 9 mer): none; intact peptide amount ([2]; time 30 min, listed as 9mer): 0 µg |
| 25.8 | 5.6 | 0.03 | 0.02 | TNPNRRNRTPQMLKR [ANA1, Thr-Asn-Pro-Asn-Arg-Arg-Asn-Arg-Thr-Pro-Gln-Met-Leu-Lys-Arg] | intact peptide amount ([2]; time 0 min, listed as 15mer): 25.78 µg; intact peptide amount ([2]; time 15 min, listed as 15mer): 5.55 µg; intact peptide amount ([2]; time 30 min, listed as 15 mer): trace amounts; intact peptide amount ([2]; time 30 min, listed as 15mer): 0.03 µg |
